Experimental findings from ChEMBL document CHEMBL4610059, “Isolation of triterpenoid saponins from Medicago sativa L. with neuroprotective activities” (2020) are described below.

Common to all, as to assay type: functional
Holding throughout (conditions): read-out: Activity

The subject of experiment [1] is SH-SY5Y. In words: Neuroprotective activity against H2O2-induced cell death in human SH-SY5Y cells assessed as cell viability at 25 uM preincubated for 1 hr followed by H2O2 addition and measured after 4 hrs by CCK8 assay (reference value: 61.14 +/- 1.05%). (In general: Tetrazolium assays rely on reduction of a dye to a coloured formazan, in cell work by metabolically active cells.)

Experiment [2] deals with SH-SY5Y. In words: Neuroprotective activity against H2O2-induced cell death in human SH-SY5Y cells assessed as cell viability at 100 uM preincubated for 1 hr followed by H2O2 addition and measured after 4 hrs by CCK8 assay (reference value: 61.14 +/- 1.05%).
Experiment [3] relates to SH-SY5Y. Description: Neuroprotective activity against H2O2-induced cell death in human SH-SY5Y cells assessed as cell viability at 50 uM preincubated for 1 hr followed by H2O2 addition and measured after 4 hrs by CCK8 assay (reference value: 61.14 +/- 1.05%).

As to `COC(=O)[C@H]1O[C@@H](O[C@H]2[C@@H](O)C[C@@]3(C)[C@@H](CC[C@]4(C)[C@@H]3CC=C3[C@@H]5CC(C)(C)CC[C@]5(C(=O)O[C@@H]5O[C@H](CO)[C@@H](O)[C@H](O)[C@H]5O)CC[C@]34C)[C@]2(C)CO)[C@H](O)[C@@H](O)[C@@H]1O[C@@H]1OC[C@@H](O)[C@H](O)[C@H]1O`, in experiment [1], the viability at 25 µM turned out to be 62.1%. For the same compound, the viability at 100 µM in experiment [2] amounted to 73%. Besides, the viability at 50 µM in experiment [3] amounted to 64.8%.
The like results for `COC(=O)[C@H]1O[C@@H](O[C@H]2[C@@H](O)C[C@@]3(C)[C@@H](CC[C@]4(C)[C@@H]3CC=C3[C@@H]5CC(C)(C)CC[C@]5(C(=O)O[C@@H]5O[C@H](CO)[C@@H](O)[C@H](O)[C@H]5O)CC[C@]34C)[C@]2(C)CO)[C@H](O[C@@H]2O[C@H](CO)[C@H](O)[C@H](O)[C@H]2O)[C@@H](O)[C@@H]1O` were, in that order, 60.7%, 67.1% and 61.2%.
The like results for `COC(=O)[C@H]1O[C@@H](O[C@H]2CC[C@@]3(C)[C@@H](CC[C@]4(C)[C@@H]3CC=C3[C@@H]5CC(C)(C)CC[C@]5(C(=O)O[C@@H]5O[C@H](CO)[C@@H](O)[C@H](O)[C@H]5O)CC[C@]34C)[C@]2(C)CO)[C@H](O[C@@H]2O[C@H](CO)[C@@H](O)[C@H](O)[C@H]2O[C@@H]2OC[C@H](O)[C@H](O)[C@H]2O)[C@@H](O)[C@@H]1O` were, in that order, 61.9%, 63.1% and 62.9%.
For `CC1(C)CC[C@]2(C(=O)O)CC[C@]3(C)C(=CC[C@@H]4[C@@]5(C)C[C@H](O)[C@H](O)[C@@](C)(C(=O)O)[C@@H]5CC[C@]43C)[C@@H]2C1` the same measures were 60.1%, 62.2% and 61.1%.
In the case of `Cc1c(C)c2c(c(C)c1O)CCC(C)(C(=O)O)O2` (stereo not given) [TROLOX], the viability at 25 µM in experiment [1] is 70.2%. In addition, the viability at 100 µM in experiment [2] worked out at 78.2%. The viability at 50 µM in experiment [3] was 75.3%.
